# Paper PMC9760430, “A stapled chromogranin A-derived peptide homes in on tumors that express αvβ6 or αvβ8 integrins” (International Journal of Biological Sciences, 2023)
# Tests used:
# [1] = system: human umbilical vein endothelial cells (HUVECs) (αvβ6- and αvβ8-); experiment: binding of peptide-IRDye conjugates to cultured HUVECs; assay type: cell-based; conditions: 0.32-200 nM, 1 h, 37 °C; bound NIR fluorescence
# Protocol: (§1) To assess the binding of peptide-IRDye conjugates to cells various amounts of conjugates (range 0.32-200 nM) were added to cultured cells and left to incubate for 1 h at 37 °C. After three washings, the cells were fixed and analyzed by scanning the plate with the Odyssey CLx.
# (§2) A control conjugate with a cysteine in place of the peptide was also prepared in parallel. The identity of the purified products, called 5a-IRDye, 2a-IRDye, and Cys-IRDye, was confirmed by mass spectrometry analysis (Table S1). In addition, the purity and identity of 5a-IRDye was monitored by liquid chromatography–mass spectrometry (LC-MS). […]
# (§3) that the product consist of a single peak at 230 and 735 nm with the expected molecular weight (purity >95%) (Figure S3A).
# (§4) The simplified molecular-input line-entry system (SMILES) of 5a-, 2a-, Cys- and 5a-Scr- […]
# (§5) The concentration of each conjugate was quantified by spectrophotometric analysis at 774 nm (molar absorption coefficient, 240,000 M-1, cm-1) (Figure S3B). […]
# (§6) The binding of peptide-IRDye conjugates to BxPC-3, 5M7101, and HUVECs cells was analyzed as follows. […]
# (§7) chloride and 1% BSA (binding buffer) for 5 min. […] Binding of conjugates to cells was quantified by scanning the plate (filled with PBS, 100 µl/well) with the Odyssey CLx (LI-COR) using the above settings, except that the scan focus offset and scan intensity were set to 4 and 8.5, respectively. […]
# [2] = system: 5M7101 pancreatic adenocarcinoma cells (αvβ6+ and αvβ8-); experiment: binding of peptide-IRDye conjugates to cultured 5M7101 cells; assay type: cell-based, murine; conditions: 0.32-200 nM, 1 h, 37 °C; bound NIR fluorescence
# Protocol: as §1, §2, §3, §4, §5, §6, §7
compound,measurement,setting,value
CC1(C)C(/C=C/C2=C(Oc3ccc(S(=O)(=O)O)cc3)C(=C\C=C3/N(CCCCCC(=O)NCCN4C(=O)CC(SC[C@H](N)C(=O)O)C4=O)c4ccc(S(=O)(=O)O)cc4C3(C)C)/CCC2)=[N+](CCCCS(=O)(=O)O)c2ccc(S(=O)(=O)[O-])cc21 (some centres unmarked) [Cys-IRDye],binding of conjugate to HUVECs,[1],little or no binding
same,binding of conjugate to 5M7101 cells,[2],little or no binding
